# In US9995734B2, “Human T cell line assay for evaluating the immunologic identity of glatiramer acetate preparations” (Mylan Inc., priority 2013, dated 2018):
# Tests used:
# [1] = test system: Donor 2 Human T-Cell Lines; assay: BrdU uptake proliferation assay, Donor 2 T-cell lines stimulated with GMA; format: cell-based; conditions: 100 μg/mL GMA; for BrdU uptake: Day 13
# Experimental: Proliferation was evaluated by measuring ATP content using a luminescent method (CellTiter Glo Luminescent Cell Viability Assay, Promega, Madison, Wis., cat. #G7571) or by measuring BrdU uptake by ELISA (Millipore cat. #2752), in both cases following kit instructions. A split well format was used. Cells in each well were resuspended and 65 μl transferred to the wells of each of two new U-bottom 96-well plates, to generate the replicate plates. […] Therefore, all three plates received autologous APC (PBMC) treated with mitomycin C to prevent cell division. […] The latter two plates were incubated for 3 days at 37° C., 6% CO2 before adding CellTiter Glo or BrdU and measuring signal. IL-2 was added at 10 U/mL to the original 96-well plate for expansion on Day 17. For subsequent screenings, mitomycin-treated EBV-transformed autologous B-LCL (2×10^5 to 5×10^5 cells/mL) were used as APC.
# PBMC were obtained from a normal, healthy, donor having MHC Class II HLA-DRβ1 04:01, 04:04 (Donor 2). […] Nine presumptive GA-specific human T-cell lines were selected for expansion and further analysis based on an increase in the OD of the GA-stimulated test sample of at least 50% relative to an unstimulated control sample.
# [2] = test system: Donor 3 GMA T-cell lines (165-B5G, 165-C4G, 165-C5G, 165-E9G, 165-F5G, 165-F10G); assay: MHC DR restriction testing (ATP proliferation with autologous and partially HLA-DR matched APC), Donor 3 GMA T-cell lines; format: cell-based, human; conditions: 20 μg/mL
# Experimental: MHC DR restriction testing of cell lines was carried out by measuring the proliferation response of the cell lines as described above in the presence of an array of APC selected based on the known HLA-DR loci of the original PBMC donor for the cell line tested, including autologous APC (B-LCL). The donors used are described in Table 2.
# To define the MHC molecule used to present antigen to GA specific T cell lines, GA specific responses were measured in the presence of autologous APC and in the presence of APC matching one of the T cell donor's HLA-DR alleles. Therefore at least 3 APC were used in each experiment: autologous APC, APC matching DR allele 1 but not allele 2 and a third APC matching allele 2 but not allele 1. In some experiments a fourth APC B-LCL was used. A no antigen negative control was used. APC were inactivated by incubation with 50 ug/mL mitomycin C. Following inactivation, cells were washed three times to remove mitomycin C and suspended in X-VIVO 15 medium at 1×10^6 cells per mL. GA was added to the cell suspension to a final concentration of 20-60 μg/mL. The cells were incubated with antigen for 1 hour at 37° C. to allow antigen uptake and binding. The cell suspension was then centrifuged to pellet the cells and the cell pellet was washed once with medium. APC were adjusted to 2×10^5 cells per mL in X-VIVO 15 medium and added to opaque 96-well plates at 100 μL per well. T-cell suspensions of 2-4×10^5 cells per mL (unless otherwise specified) were added to the 96-well plates at 100 μL per well and the cultures incubated 4 days before measuring cell numbers using CellTiter Glo® (to evaluate proliferation).
# Alternatively, APC were not pulsed. Instead, each well contained 10 ug/mL antigen, 50 μl APC and 100 μL of T cells.
# After incubating for 4 days at 37° C. (5% CO2), 100 μL were removed from each well, combined with 100 μL CellTiterGlo reagent, and luminescence was measured using a Packard Fusion. Results were expressed in relative light units (RLU).
# As described in the Methods, T-cell lines were tested for MHC restriction by measuring proliferation following incubation with APC. Mitomycin-treated autologous APC, and test APC, e.g., from donors having at least one HLA-DR match with the original PBMC donor were employed. The values in the data tables below are in RLU.
# (§1) Donor 3 T-cell line 165-B5G was assayed for proliferation, using mitomycin-treated APC from Donors 3, 5, and 6 that had been incubated in the presence or the absence of 20 μg/mL GMA. T-cell line 165-B5G had been restimulated six times (not including the initial stimulation) with antigen before the MHC restriction assay was carried out. The data, shown in Table 62 and FIG. 9A, indicate that 165-B5G is restricted by HLA-DRβ1*11.
# as §1, with “165-C4G” for “165-B5G”, “7” for “6”, “five” for “six”, “63” for “62”, “9B,” for “9A,”
# as §1, with “165-05G” for “165-B5G”, “four” for “six”, “64” for “62”, “10A,” for “9A,”, “HLA-DRβ1*1501.” for “HLA-DRβ1*11.”
# as §1, with “165-E9G” for “165-B5G”, “four” for “six”, “The data, shown in Table 62 and FIG. 9A, indicate that 165-B5G is restricted by HLA-DRβ1*11.” left out
# [3] = test system: GA-specific T-cell lines; format: cell-based, human; conditions: concentrations approaching and exceeding 10 μg/mL; data not shown
# Experimental: GA-specific T-cell lines from Donors 1 and 3 were tested for proliferation in response to stimulation with peptide GL 14, poly (Glu-Lys 1:4).
substance,measurement,setting,value
glatiramer acetate [GMA],BrdU uptake,"[1]; 206-1A6, control 0.220",0.563 OD450
same,BrdU uptake,"[1]; 206-1A7, control 0.329",0.688 OD450
same,BrdU uptake,"[1]; 206-1A11, control 0.151",0.452 OD450
same,BrdU uptake,"[1]; 206-1C12, control 0.272",0.626 OD450
same,BrdU uptake,"[1]; 206-1H1, control 0.109",0.447 OD450
same,BrdU uptake,"[1]; 206-1H2, control 0.095",0.526 OD450
same,BrdU uptake,"[1]; 206-2A1, control 0.259",0.548 OD450
same,BrdU uptake,"[1]; 206-2A10, control 0.162",0.444 OD450
same,BrdU uptake,"[1]; 206-2C3, control 0.146",0.358 OD450
same,difference in BrdU uptake from control,[1]; nine Donor 2 lines of Table 17,greater than two-fold
same,increase in the OD of the GA-stimulated test sample relative to an unstimulated control sample,[1]; nine Donor 2 lines of Table 17,at least 50%
same,Proliferation with antigen-incubated APC,"[2]; T-cell line 165-B5G, B-LCL Donor 3 (Autologous) DRβ1*1501/DRβ1*11",4776 RLU
same,Proliferation with antigen-incubated APC,"[2]; T-cell line 165-B5G, B-LCL Donor 5 DRβ1*01/DRβ1*11",5450 RLU
same,Proliferation with antigen-incubated APC,"[2]; T-cell line 165-B5G, B-LCL Donor 6 DRβ1*1501/DRβ1*13",2360 RLU
same,Proliferation with antigen-incubated APC,"[2]; T-cell line 165-C4G, B-LCL Donor 3 (Autologous) DRβ1*1501/DRβ1*11",48711 RLU
same,Proliferation with antigen-incubated APC,"[2]; T-cell line 165-C4G, B-LCL Donor 5 DRβ1*01/DRβ1*11",41833 RLU
same,Proliferation with antigen-incubated APC,"[2]; T-cell line 165-C4G, B-LCL Donor 7 DRβ1*1501/DRβ1*03",4870 RLU
same,Proliferation with antigen-incubated APC,"[2]; T-cell line 165-C5G, B-LCL Donor 3 (Autologous) DRβ1*1501/DRβ1*11",16461 RLU
same,Proliferation with antigen-incubated APC,"[2]; T-cell line 165-C5G, B-LCL Donor 5 DRβ1*01/DRβ1*11",9825 RLU
same,Proliferation with antigen-incubated APC,"[2]; T-cell line 165-C5G, B-LCL Donor 6 DRβ1*1501/DRβ1*13",31717 RLU
same,Proliferation with antigen-incubated APC,"[2]; T-cell line 165-E9G, B-LCL Donor 3 (Autologous) DRβ1*1501/DRβ1*11",5452 RLU
same,Proliferation with antigen-incubated APC,"[2]; T-cell line 165-E9G, B-LCL Donor 5 DRβ1*01/DRβ1*11",9514 RLU
same,Proliferation with antigen-incubated APC,"[2]; T-cell line 165-E9G, B-LCL Donor 6 DRβ1*1501/DRβ1*13",1442 RLU
same,Proliferation with antigen-incubated APC,"[2]; T-cell line 165-F5G, B-LCL Donor 3 (Autologous) DRβ1*1501/DRβ1*11",2862 RLU
same,Proliferation with antigen-incubated APC,"[2]; T-cell line 165-F5G, B-LCL Donor 5 DRβ1*01/DRβ1*11",3971 RLU
same,Proliferation with antigen-incubated APC,"[2]; T-cell line 165-F5G, B-LCL Donor 6 DRβ1*1501/DRβ1*13",1424 RLU
same,Proliferation with antigen-incubated APC,"[2]; T-cell line 165-F10G, B-LCL Donor 3 (Autologous) DRβ1*1501/DRβ1*11",120946 RLU
same,Proliferation with antigen-incubated APC,"[2]; T-cell line 165-F10G, B-LCL Donor 5 DRβ1*01/DRβ1*11",6221 RLU
same,Proliferation with antigen-incubated APC,"[2]; T-cell line 165-F10G, B-LCL Donor 7 DRβ1*1501/DRβ1*03",151115 RLU
poly (Glu-Lys; 1:4) [GL 14],cell death,[3],causes cell death
